Results as given in EP2217930B1, “MALDI MS-BASED HIGH-THROUGHPUT SCREENING METHOD FOR SUBSTANCES INHIBITING AGGREGATION OF ALZHEIMER'S AMYLOID BETA PEPTIDES” (Tallinn University of Technology, priority 2007, dated 2009).

biological target: T1, Aβ42 (Homo sapiens, UniProt P05067); experiment: automatic MALDI-TOF MS high-throughput screening assay for inhibitors of Aβ42 aggregation (detection of monomeric Aβ42, insulin B chain as internal standard); type: biochemical; details: 35 selected substances tested; 5 µM Aβ42 in 20mM HEPES 0.1 M NaCl pH 7.5; monomeric Aβ42 detected by MALDI-TOF MS
T1 construct: Both 40 and 42 amino acid amyloid beta peptides were purchased from rPeptide; purchased rPeptide (Bogart, USA)
T1 sequence (P05067 672-713 limits assumed): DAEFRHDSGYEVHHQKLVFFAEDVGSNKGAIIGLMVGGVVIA
Procedure: For every aggregation experiment Aβ42 solutions were prepared following the same procedure. The lyophilized peptide was taken out from the -80°C fridge, and incubated at room temperature until thawing. Cold 0.02% ammonium hydroxide was added to the peptide to get a final concentration of 10 µM. The solution was mixed on the vortex for a minute and put on ice. Before the beginning of the experiment the solution was mixed again for a shorter time. To start the experiment, the peptide stock solution was diluted in a ratio of 1:1 into the buffer, which contained various concentrations of a tested compound. All probes contained 5 µM Aβ42 in 20mM HEPES 0.1 M NaCl pH 7.5. Aβ42 solutions were always prepared shortly before the beginning of experiment.
First, 5 µM B chain solution in 60% AcN 0.3% TFA was prepared and added to the α-cyano matrix solution to generate a 10 mg/ml α-cyano, 0.25 µM B chain solution in 60% AcN 0.3% TFA. The solution was mixed on a vortex for a minute and then incubated at room temperature for 10 minutes. Solution was mixed again, centrifuged for 3 min at 6000 rpm and the supernatant was transferred into a clean vial. Shortly before the beginning of aggregation experiments, Aβ42 solutions were prepared and transferred to sequential wells of a 96-well plate.
Spots on MALDI plates were generated automatically by an Ettan Spotter (Amersham Biosciences, Sweden). Different spotting procedures were tested and best results were obtained using the following method: 0.5 µl sample + 1.5 µl matrix containing the internal calibrant - mixing 3 times with a volume of 1 µl.
The spots were air-dried and spectra were collected automatically with Voyager DE™ STR BioSpectrometry™Workstation (Applied Biosystems, USA) mass spectrometer. […] The spectra were processed with Data Explorer™ Software (Version 4; Applied Biosystems, USA).

Row | inhibition of aggregation of Aβ42 | Substance
1 | inhibited aggregation of Aβ42 | Zn(CH3COO)2 [zinc]
2 | inhibited aggregation of Aβ42 | copper

Row | Substance | inhibition of aggregation of Aβ42
3 | hemin | inhibits aggregation of Aβ42
